Drawing on patent US7408065B2, “P2X7 receptor antagonists and their use” (AstraZeneca AB, priority 2003, dated 2008), this text covers melting point for 29 compounds.

Where a name gives a salt, the structure may show the parent alone.

Compound `O=C(O)CCCCc1ccc2c(NC(=O)CC3CCCCC3)c(Cl)ccc2n1` [Example 70, 6-Chloro-5-[(cyclohexylacetyl)amino]-2-quinolinepentanoic Acid] came in with a melting point of 199 to 201 °C.
In the case of `O=C(CC1CCCCC1)Nc1c(Cl)ccc2nc(N3CCC(c4nsc(=O)[nH]4)CC3)ccc12` [Example 103, N-[6-Chloro-2-[4-(4,5-dihydro-5-oxo-1,2,4-thiadiazol-3-yl)-1-piperidinyl]-5-quinolinyl]-cyclohexaneacetamide] it was 275 °C; in that of `O=C(CC1CCCCC1)Nc1c(Cl)ccc2nc(N3CCCNCC3)ccc12` [Example 10, N-[6-Chlor-2-(hexahydro-1H-1,4-diazepin-1-yl)-5-quinolinyl]-cyclohexaneacetamide], 186 to 188 °C; in that of `O=C(CC1CCCCC1)Nc1c(Cl)ccc2nc(N3CCNCC3)ccc12` (as salt: hydrochloride), > 250 °C.
In the case of `O=C(CC1CCCCC1)Nc1c(Cl)ccc2nc(N3CCCC(NCCO)C3)ccc12` (centres unmarked) [Example 80, N-[6-Chloro-2-[3-[(2-hydroxyethyl)amino]-1-piperidinyl]-5-quinolinyl]-cyclohexaneacetamide], the melting point was 185 to 186 °C.
In the case of `O=C(NCC1CCCCC1)c1c(Cl)ccc2nc(N3CCC[C@@H]3C(=O)O)ccc12` [Example 71, 1-[6-Chloro-5-[[(cyclohexylmethyl)amino]carbonyl]-2-quinolinyl]-D-proline] it was 157 to 160 °C; in that of `CNCCCN(C)c1ccc2c(NC(=O)CC3CCCCC3)c(Cl)ccc2n1` (as salt: hydrochloride) [Example 3, N-[6-Chloro-2-[methyl[3-(methylamino)propyl]amino]-5-quinolinyl]-cyclohexaneacetamide, Dihydrochloride], 231 to 233 °C; in that of `CCNCCCc1ccc2c(NC(=O)CC3CCCCC3)c(C)ccc2n1` (as salt: hydrochloride) [Example 15, N-[2-[3-(Ethylamino)propyl]-6-methyl-5-quinolinyl]-cyclohexaneacetamide, Dihydrochloride], 231 to 234 °C.
In the case of `N[C@H]1CCN(c2ccc3c(C(=O)NCC4CCCCC4)cccc3n2)C1` [Example 54, 2-[(3S)-3-Amino-1-pyrrolidinyl]-N-(cyclohexylmethyl)-5-quinolinecarboxamide] it was 127 to 128 °C; in that of `O=C(CC1CCC(C(F)(F)F)CC1)Nc1c(Cl)ccc2nc(N3CCNCC3)ccc12` (centres unmarked) [Example 9, N-[6-Chloro-2-(1-piperazinyl)-5-quinolinyl]-4-(trifluoromethyl)-cyclohexaneacetamide], 186 to 190 °C; in that of `O=C(O)CCCNc1ccc2c(NC(=O)CC3CCCCC3)c(Cl)ccc2n1` [Example 7, 4-[[6-Chlor-5-[(cyclohexylacetyl)amino]-2-quinolinyl]amino]-butanoic Acid], 248 to 250 °C.
In the case of `O=C(O)CC1CCN(c2ccc3c(C(=O)NCC4CCCCC4)c(Cl)ccc3n2)CC1` (as salt: trifluoroacetate) it was 79 to 83 °C.
`O=C(O)CC1CCN(c2ccc3c(NC(=O)CC4CCCCC4)c(Cl)ccc3n2)CC1` [Example 68, 1-[6-Chloro-5-[(cyclohexylacetyl)amino]-2-quinolinyl]-4-piperidineacetic Acid]: the melting point fell in the range of 242 to 244 °C.
In the case of `O=C(CC1CCCCC1)Nc1c(Cl)ccc2nc(N3C[C@@H]4C[C@H]3CN4)ccc12` (as salt: acetate) [Example 13, N-[6-Chloro-2-[(1S,4S)-2,5-diazabicyclo[2.2.1]hept-2-yl]-5-quinolinyl]-cyclohexaneacetamide, Acetate] it was 120 °C (dec.); in that of `Cc1ccc2nc(N3CC[C@H](NCCO)C3)ccc2c1NC(=O)CC1CCCCC1` [Example 86, N-[2-[(3S)-3-[(2-Hydroxyethyl)amino]-1-pyrrolidinyl]-6-methyl-5-quinolinyl]-cyclohexaneacetamide], 204 to 207 °C.
For `O=C(NCC1CCCCC1)c1c(Cl)ccc2nc(CCCCc3nnn[nH]3)ccc12` [Example 106, 6-Chloro-N-(cyclohexylmethyl)-2-[4-(1H-tetrazol-5-yl)butyl]-5-quinolinecarboxamide], the melting point fell in the range of 90 to 93 °C.
In the case of `N[C@@H]1CCN(c2ccc3c(NC(=O)CC4CCCCC4)c(Cl)ccc3n2)C1` [Example 30, N-[2-[(3R)-3-Amino-1-pyrrolidinyl]-6-chloro-5-quinolinyl]-cyclohexaneacetamide] it was 201 to 206 °C; in that of `O=C(CC1CCCCC1)Nc1c(Cl)ccc2nc(N3CCC(NS(=O)(=O)C(F)(F)F)CC3)ccc12` [Example 114, N-[6-Chloro-2-[4-[[(trifluoromethyl)sulfonyl]amino]-1-piperidinyl]-5-quinolinyl]-cyclohexaneacetamide], 187 to 189 °C; in that of `CNCCCN(C)c1ccc2c(NC(=O)C3(C4CCCCC4)CC3)c(Cl)ccc2n1` (as salt: hydrochloride), 215 to 218 °C.
Compound `Cc1ccc2nc(N3CC[C@H](N)C3)ccc2c1NC(=O)CC1CCCCC1` [Example 38, N-[2-[(3S)-3-Amino-1-pyrrolidinyl]-6-methyl-5-quinolinyl]-cyclohexaneacetamide] returned a melting point of 223 to 224 °C.
In the case of `CNCCCN(C)c1ccc2c(NC(=O)CC3CCC(C(F)(F)F)CC3)c(Cl)ccc2n1` (centres unmarked) (as salt: hydrochloride) it was 250 °C (dec.).
In the case of `O=C(NCC1CCCCC1)c1c(Cl)ccc2nc(N3CCC[C@H]3C(=O)O)ccc12` (as salt: trifluoroacetate) it was 168 to 170 °C.
In the case of `O=C(CC1CCCCC1)Nc1c(Cl)ccc2nc(N3CC[C@@H](NCCO)C3)ccc12` [Example 34, N-[6-Chloro-2-[(3R)-3-[(2-hydroxyethyl)amino]-1-pyrrolidinyl]-5-quinolinyl]-cyclohexaneacetamide] it was 197 to 199 °C; in that of `O=C(CC1CCCCC1)Nc1c(Cl)ccc2nc(N3CCC[C@H](NCCO)C3)ccc12` [Example 61, N-[6-Chloro-2-[(3S)-3-[(2-hydroxyethyl)amino]-1-piperidinyl]-5-quinolinyl]-cyclohexaneacetamide], 182 to 183 °C; in that of `N[C@H]1CCN(c2ccc3c(NC(=O)CC4CCCCC4)c(Cl)ccc3n2)C1` [Example 31, N-[2-[(3S)-3-Amino-1-pyrrolidinyl]-6-chloro-5-quinolinyl]-cyclohexaneacetamide], 219 to 226 °C.
The compound `CCNCCCc1ccc2c(NC(=O)CC3CCCCC3)c(Cl)ccc2n1` (as salt: hydrochloride) showed a melting point of 152 to 155 °C.
In the case of `O=C(CC1CCCCC1)Nc1c(Cl)ccc2nc(CCCc3nnn[nH]3)ccc12` (as salt: trifluoroacetate) it was 140 to 145 °C; in that of `N[C@H]1CCCN(c2ccc3c(NC(=O)CC4CCCCC4)c(Cl)ccc3n2)C1` [Example 60, N-[2-[(3S)-3-Amino-1-piperidinyl]-6-chloro-5-quinolinyl]-cyclohexaneacetamide], 173 to 176 °C.
In the case of `O=C(O)CCNc1ccc2c(NC(=O)CC3CCCCC3)c(Cl)ccc2n1` [Example 41, N-[6-Chloro-5-[(cyclohexylacetyl)amino]-2-quinolinyl]-β-alanine] it was 222 to 224 °C (dec.).

Usually melting point stands for the temperature, or range, at which the solid turns liquid.
